From patent US20110098177A1, “METHODS AND COMPOSITIONS OF PLANT MICRONUTRIENTS” (NOVUS INTERNATIONAL INC., priority 2006, published 2011)
Read-outs that look alike come from different tables or passages of the source. Marks after values point to notes of the source that are not given here.

Tests used:
Format in all cases: in vivo
Aristotle bell pepper [1] = details: 1 week after treatment, scale 0 = no visible injury, 10 = plant death
Method in brief: (§1)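 Florida-47 tomato and Aristotle bell pepper transplants in 2-gal pots with low-nutrient medium (pH 5.36), drip-irrigated; products at three rates in deionized water plus non-ionic surfactant sprayed on newly matured leaves at 3 and 7 WAT. Toxicity scored at 4 WAT (0=no damage, 10=death); foliar tissue analysed at 6 WAT; marketable fruit harvested 4 times (tomato).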

Florida-47 tomato = details: for Tomato toxicity: 1 week after treatment, scale 0 = no visible injury, 10 = plant death
Method in brief: as §1

Aristotle bell pepper [2] = test: Marketable yield per plant, greenhouse Fall 2007, bell pepper; details: for Marketable yield per plant, Pepper: foliar application at 3 and 7 WAT, rates not separated; for Bell pepper yield compared with control (in words): foliar applications, P<0.05
Procedure: The following experiments were performed in a green house during the fall of 2007 at GCREC, Balm, University of Florida. Fifteen products, at 3 different application rates were examined. The plot size was 2-gallon pots. Crop set-up, procedures and variables were as follows.
Transplants of ‘Florida-47’ tomato and ‘Aristotle’ bell pepper plants in the 4-true leaf stage (about 6 inches tall) were planted in 2-gal pots on Aug. 27, 2007. Pots were filled with a commercially available planting medium. This medium was selected based on the mineral composition of the products to be applied without providing significant nutritional inputs to the crops. Irrigation was provided with drip lines delivering between 0.50 and 0.33 gal/day/pot for tomato and bell pepper, respectively, and the crops were irrigated three times per day. No foliar pesticides were necessary.
There were four control treatments corresponding to each target micronutrient in which non-Fe, non-Mn, non-Zn or non-Cu pots received all other essential nutrients under non-limiting conditions.
Treatments were applied at three rates (high, medium and low) obtained from the estimated concentration of Zn, Fe, Cu, and Mn foliarly-applied in tomato and bell pepper in field situations (Table 1). Products were weighed and dissolved in 200 ml of deionized water with a non-ionic surfactant and applied to the newly-matured open leaves of each crop at 3 and 7 weeks after transplant (WAT). Treated pots were isolated during application to avoid cross-contamination of other treatments.
Medium nutrient concentration was determined 1 week before treatment. The mineral composition of the medium was 26.8 ppm NH4—N, 49 ppm NO3—N, 15.8 ppm P, 91.2 ppm K, 82.3 ppm Ca, 58.2 ppm Mg, 23.9 ppm Na, 125.6 ppm S, 1.33 ppm Fe, 0.39 ppm Mn, 0.35 ppm Zn, 0.05 pp, Cu, 0.04 ppm B, 0 ppm Mo, 0.73 ppm Al, and 12.1 ppm Si. The pH of the medium was 5.36 and the electric conductivity was 1.38 mS/cm. The foliar tissue analysis was performed at 6 WAT and the concentration of N, P, K, Mg, Ca, S, B, Zn, Mn, Fe, and Cu was determined by a commercial laboratory. Plant toxicity was determined at 4 WAT by using a 0-10 visual scale, where 0=no visible damage and 10=total plant death. Marketable fruit weight was collected 2 times in bell pepper and 4 times in tomato following USDA standards.
Data were analyzed using a general linear model, and means were separated using orthogonal contrasts at the 5% significance level.

[3] = system: Patriot bell pepper plants; test: Foliar nutrient concentration at 6 WAT, open-field bell pepper (Examples 7-10); details: for Foliar B concentration of bell pepper plants / Foliar Ca concentration of bell pepper plants / Foliar Cu concentration of bell pepper plants / Foliar Fe concentration of bell pepper plants / Foliar K concentration of bell pepper plants / Foliar Mg concentration of bell pepper plants / Foliar Mn concentration of bell pepper plants / Foliar N concentration of bell pepper plants / Foliar P concentration of bell pepper plants / Foliar Zn concentration of bell pepper plants / Foliar Zn concentration of bell pepper plants compared to control, statement: 6 WAT, open field; for Foliar B concentration of bell pepper plants / Foliar Ca concentration of bell pepper plants / Foliar Cu concentration of bell pepper plants / Foliar Fe concentration of bell pepper plants / Foliar K concentration of bell pepper plants / Foliar Mg concentration of bell pepper plants / Foliar Mn concentration of bell pepper plants / Foliar N concentration of bell pepper plants / Foliar P concentration of bell pepper plants / Foliar Zn concentration of bell pepper plants: product rate as Table 17
Method in brief: (§2)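 Open-field Florida trial, spring 2008: transplants at 4-true-leaf stage on drip-irrigated raised beds were foliar-sprayed at 3 and 5 WAT (BIOX-CM at 4 and 5 WAT) at 60 gal/acre with non-ionic surfactant. Most recent mature leaves were sampled at 6 WAT. Tomato fruit was USDA-graded and analysed for minerals.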

Tygress tomato plants = test: Nutrient concentration of tomato fruits at 10 WAT, open field (Examples 7-10); details: for B concentration of tomato fruits / Ca concentration of tomato fruits / Cu concentration of tomato fruits / Fe concentration of tomato fruits / K concentration of tomato fruits / Mg concentration of tomato fruits / Mn concentration of tomato fruits / N concentration of tomato fruits / P concentration of tomato fruits / Zn concentration of tomato fruits: 10 WAT, open field, product rate as Table 17
Method in brief: as §2

| Compound | Pepper toxicity (Aristotle bell pepper [1]; High rate) | Pepper toxicity (Aristotle bell pepper [1]; Low rate) | Pepper toxicity (Aristotle bell pepper [1]; Medium rate) | Tomato toxicity (Florida-47 tomato; High rate) | Tomato toxicity (Florida-47 tomato; Low rate) | Tomato toxicity (Florida-47 tomato; Medium rate) | Foliar B concentration of bell pepper plants [3] | Foliar Ca concentration of bell pepper plants [3] | Foliar Cu concentration of bell pepper plants [3] | Foliar Fe concentration of bell pepper plants [3] | Foliar K concentration of bell pepper plants [3] | Foliar Mg concentration of bell pepper plants [3] | Foliar Mn concentration of bell pepper plants [3] | Foliar N concentration of bell pepper plants [3] | Foliar P concentration of bell pepper plants [3] | Foliar Zn concentration of bell pepper plants [3] | B concentration of tomato fruits (Tygress tomato plants) | Ca concentration of tomato fruits (Tygress tomato plants) | Cu concentration of tomato fruits (Tygress tomato plants) | Fe concentration of tomato fruits (Tygress tomato plants) | other results |
| --- | --- | --- | --- | --- | --- | --- | --- | --- | --- | --- | --- | --- | --- | --- | --- | --- | --- | --- | --- | --- | --- |
| CSCCC(O)C(=O)[O-].CSCCC(O)C(=O)[O-].[Cu+2] (centres unmarked) [BIOX-Cu, Cu-HMTBA] | 0 | 0 | 0 | 0 | 0 | 0 | 42 ppm | 1.8% | 407 b ppm | 83 ppm | 5.6% | 0.58% | 211 ppm | 5.0% | 0.21% | 306 ppm | 21 ppm | 0.2% | 21 ppm | 77 ppm | Foliar injury (in words) (Florida-47 tomato; copper concentration of 0.004% to 0.061% by weight, tomato and bell pepper stated together): no foliar injury; Marketable yield per plant, Pepper (Aristotle bell pepper [2]): 4.0* lb/plant; Bell pepper yield compared with control (in words) (Aristotle bell pepper [2]): significantly increased; K concentration of tomato fruits (Tygress tomato plants): 8.5%; Mg concentration of tomato fruits (Tygress tomato plants): 0.39%; Mn concentration of tomato fruits (Tygress tomato plants): 37 ppm; N concentration of tomato fruits (Tygress tomato plants): 4.4%; P concentration of tomato fruits (Tygress tomato plants): 0.67%; Zn concentration of tomato fruits (Tygress tomato plants): 294 ppm |
| CSCCC(O)C(=O)[O-].CSCCC(O)C(=O)[O-].[Mn+2] (centres unmarked) [BIOX-M, Mn-HMTBA] | 0 | 0 | 0 | 0 | 0 | 0 | 59 ppm | 4.2% | 462 ppm | 124 ppm | 3.4% | 0.52% | 436 ppm | 4.4% | 0.25% | 63 ppm | 23 ppm | 0.2% | 23 b ppm | 81 b ppm | Toxic effect on the plant (in words) (Florida-47 tomato; manganese concentration of 0.015% to 0.124% by weight, both crops): no toxic effect; Marketable yield per plant, Pepper (Aristotle bell pepper [2]): 3.9* lb/plant; Bell pepper yield compared with control (in words) (Aristotle bell pepper [2]): significantly increased; K concentration of tomato fruits (Tygress tomato plants): 8.0%; Mg concentration of tomato fruits (Tygress tomato plants): 0.37%; Mn concentration of tomato fruits (Tygress tomato plants): 43 b ppm; N concentration of tomato fruits (Tygress tomato plants): 4.2%; P concentration of tomato fruits (Tygress tomato plants): 0.65%; Zn concentration of tomato fruits (Tygress tomato plants): 209 b ppm |
| CSCCC(O)C(=O)[O-].CSCCC(O)C(=O)[O-].[Zn+2] (centres unmarked) [BIOX-Z, Zn-HMTBA] | 0 | 0 | 0 | 0 | 0 | 0 | 62 ppm | 4.4% | 387 ppm | 121 ppm | 3.7% | 0.50% | 240 ppm | 4.2% | 0.25% | 220 a ppm | 20 ppm | 0.2% | 21 ppm | 82 ppm | Marketable yield per plant, Pepper (Aristotle bell pepper [2]): 2.9* lb/plant; Bell pepper yield compared with control (in words) (Aristotle bell pepper [2]): significantly increased; Foliar Zn concentration of bell pepper plants compared to control, statement [3]: significantly higher foliar concentration of Zn; K concentration of tomato fruits (Tygress tomato plants): 8.0%; Mg concentration of tomato fruits (Tygress tomato plants): 0.36%; Mn concentration of tomato fruits (Tygress tomato plants): 38 ppm; N concentration of tomato fruits (Tygress tomato plants): 4.3%; P concentration of tomato fruits (Tygress tomato plants): 0.63%; Zn concentration of tomato fruits (Tygress tomato plants): 308 ppm |
| EDTA chelated zinc [BIOX-EDZ] | 0 | 0 | 0 | 0 | 0 | 0 | 59 ppm | 4.2% | 421 ppm | 121 ppm | 3.2% | 0.47% | 284 ppm | 4.2% | 0.24% | 234 a ppm | 22 ppm | 0.2% | 23 ppm | 82 ppm | Foliar Zn concentration of bell pepper plants compared to control, statement [3]: significantly higher foliar concentration of Zn; K concentration of tomato fruits (Tygress tomato plants): 8.5%; Mg concentration of tomato fruits (Tygress tomato plants): 0.37%; Mn concentration of tomato fruits (Tygress tomato plants): 43 ppm; N concentration of tomato fruits (Tygress tomato plants): 4.4%; P concentration of tomato fruits (Tygress tomato plants): 0.66%; Zn concentration of tomato fruits (Tygress tomato plants): 1018 ppm |
| Fe-HMTBA [BIOX-Fe] | – | – | – | – | – | – | – | – | – | – | – | – | – | – | – | – | – | – | – | – | Foliar nutrient concentration: B ([3]; bell pepper plants at 6 WAT): 39 ppm; Foliar nutrient concentration: Ca ([3]; bell pepper plants at 6 WAT): 2.2%; Foliar nutrient concentration: Cu ([3]; bell pepper plants at 6 WAT): 369 ppm; Foliar nutrient concentration: Fe ([3]; bell pepper plants at 6 WAT): 112 ppm; Foliar nutrient concentration: K ([3]; bell pepper plants at 6 WAT): 6.0%; Foliar nutrient concentration: Mg ([3]; bell pepper plants at 6 WAT): 0.66%; Foliar nutrient concentration: Mn ([3]; bell pepper plants at 6 WAT): 251 ppm; Foliar nutrient concentration: N ([3]; bell pepper plants at 6 WAT): 5.0%; Foliar nutrient concentration: P ([3]; bell pepper plants at 6 WAT): 0.20%; Foliar nutrient concentration: Zn ([3]; bell pepper plants at 6 WAT): 318 ppm; Nutrient concentration of tomato fruits: B (Tygress tomato plants; tomato fruits at 10 WAT): 21 ppm; Nutrient concentration of tomato fruits: Ca (Tygress tomato plants; tomato fruits at 10 WAT): 0.2%; Nutrient concentration of tomato fruits: Cu (Tygress tomato plants; tomato fruits at 10 WAT): 21 ppm; Nutrient concentration of tomato fruits: Fe (Tygress tomato plants; tomato fruits at 10 WAT): 77 ppm; Nutrient concentration of tomato fruits: K (Tygress tomato plants; tomato fruits at 10 WAT): 8.2%; Nutrient concentration of tomato fruits: Mg (Tygress tomato plants; tomato fruits at 10 WAT): 0.37%; Nutrient concentration of tomato fruits: Mn (Tygress tomato plants; tomato fruits at 10 WAT): 37 ppm; Nutrient concentration of tomato fruits: N (Tygress tomato plants; tomato fruits at 10 WAT): 4.2%; Nutrient concentration of tomato fruits: P (Tygress tomato plants; tomato fruits at 10 WAT): 0.69%; Nutrient concentration of tomato fruits: Zn (Tygress tomato plants; tomato fruits at 10 WAT): 294 ppm |
